Series [1] is described as follows: Oxirane ring-opening (oxirane conversion) via FTIR. It is filed as physicochemical. To be noted: thin film, 10 min irradiation. Here is the method: In this example, the oxirane ring-opening of monomers 1 (DEBAOM-1,5,7,11-TOSU) or 6 (DEBTMSPOM-1,5,7,11-TOSU) was investigated using FTIR. All FTIR spectra were acquired using a Perkin-Elmer BX II FTIR spectrophotometer. The identification of the location of the oxirane absorption band in the IR spectrum of Siloranes was achieved by methanolysis. A sample was dissolved in CH2Cl2 and exposed to CH30H in the presence of a catalytic amount of zinc tetrafluoroborate hydrate overnight. The mixture was evaporated onto a salt plate. An FTIR spectrum was acquired and compared to pre-exposure spectrum. There was a significant decrease in the oxirane absorption region at 882-886 cm^−1. This band was selected as the absorption to monitor for following the oxirane ring-opening reaction.
Analytical samples contained siloranes I, II, or SIL-MIX with and without 50 mol % of monomer 1 (DEBAOM-1,5,7,11-TOSU) or 6 (DEBTMSPOM-1,5,7,11-TOSU). A thin film was brushed onto a salt plate. Irradiation (10 minutes at 23 to 25° C. and R. H.=40-45%) was provided by a 3M XL2500 curing light positioned 1-cm above the sample surface. The light intensity was measured at 360 mW/cm^2 on the sample surface. The oxirane band absorption and an internal reference band absorption were assessed before and after irradiation. Oxirane conversion (alpha) was calculated according to equation (1) by Pan et al., Polym Int 2000, 49, 74. [formula] where subscripts 0 and t represent pre-irradiation and post-irradiation respectively.

Series [2] in a line: Photopolymerization stress measurement (tensilometer). It is filed as physicochemical. The procedure: In this example, the photopolymerization stress of the monomers of the present invention was investigated. Stress generated during photopolymerization was measured (n=3) using an electromagnetic mechanical testing machine (Enduratec Model 3200, Bose Corp., Minnetonka, Minn.) adapted to be a tensilometer. See Feilzer et al., Dent. Mater. […] Briefly, two identical glass rods, 5 mm in diameter, were placed opposing one another and separated by 1 mm (C-factor=2.5). A displacement transducer (LVDT, Enduratec, 0.1 μm resolution, range ±1 mm) was mounted on one glass rod and was touching a plate attached to the opposing glass rod. The distance between the mounts on the opposing glass rods was about 9 mm (including the 1 mm separation between the rods). Samples placed between the glass rods were cured by irradiation (500 mW/cm^2), while under LVDT displacement control. Load-displacement data were collected at 200 Hz for 30 mins. […] From the load-displacement data, peak loads were obtained and normalized by the original area to obtain the polymerization stresses.

SMILES strings stand for the structures.

In the case of `CCC1(COCCC[Si](C)(C)C)COC2(OC1)OCC(CC)(COCCC[Si](C)(C)C)CO2` (stereo not shown) [Monomer 6, 3,9-diethyl-3,9-bis(3-trimethylsilylpropyloxymethyl)-1,5,7,11-tetraoxaspiro[5.5]undecane], the “Oxirane Conversion” value in series [1] (comonomer 50 mol % in PH-SIL (I)) turned out to be 22%; in series [1] (comonomer 50 mol % in SIL-MIX), 22%; in series [1] (comonomer 50 mol % in TET-SIL (II)) it was 3%. Moreover, the entries for the “polymerization stress values less than SIL-MIX alone” value in series [2] (10 mol % TOSU) and in series [2] (25 mol % TOSU) were 80% and 96%, respectively. Further, the values for the Photopolymerization stress in series [2] (SIL-MIX/6 75/25 mol/mol) and in series [2] (SIL-MIX/6 90/10 mol/mol) were 0.3(0.1) N/mm^2 and 2.1(0.2) N/mm^2, respectively.

Values taken from patent US20070072954A1, “Novel tetraoxaspiroalkanes and methods of use with organosilicon monomers in polyerizable compositions” (Curators of the University of Missouri, priority 2005, published 2007).
